The record followed here is PubChem BioAssay (NCI).

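96-well plates; 48 h exposure; 5 concentrations. Endpoints by linear interpolation between flanking doses. Not reached: highest tested concentration assigned. GI50: concentration for 50% inhibition of growth. At the TGI there is no net growth.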

Test systems include HCT-15 colon; COLO 205 colon; SK-MEL-28 melanoma; RXF 393 renal; MOLT-4 leukemia; A549 NSCLC; ACHN renal; RPMI-8226 leukemia; SW-620 colon; HOP-62 NSCLC.
Common to all, as to experiment: growth of human tumour cells (NCI), 48 h

For the molecule `COc1ccc2[nH]c(C(=O)OCc3ccc4cccc(O)c4n3)cc2c1`, the GI50 in the experiment on HCT-15 colon is 0.757 µM; in the experiment with COLO 205 colon, 1.29 µM; with SK-MEL-28 melanoma it was 1.61 µM; in the experiment on RXF 393 renal it was 1.06 µM; in the experiment on MOLT-4 leukemia it was 0.641 µM; with A549 NSCLC, 1.81 µM. In addition, the GI50 was 0.69 µM in the experiment with ACHN renal, 0.288 µM in the experiment on RPMI-8226 leukemia, 1.2 µM in the experiment on SW-620 colon and 1.52 µM with HOP-62 NSCLC. The TGI came out at 3.18 µM in the experiment on HCT-15 colon; 2.91 µM in the experiment with COLO 205 colon; 3 µM with SK-MEL-28 melanoma; 2.31 µM with RXF 393 renal; 2.99 µM in the experiment on MOLT-4 leukemia; 3.92 µM in the experiment with A549 NSCLC. The TGI came out at 1.98 µM in the experiment on ACHN renal, 0.874 µM in the experiment on RPMI-8226 leukemia, 3.15 µM in the experiment with SW-620 colon and 3.5 µM with HOP-62 NSCLC.
`O=C(CN(/C=C/C(=O)C(F)(F)F)c1ccccc1)c1ccc(Cl)cc1`: the GI50 with HCT-15 colon is 19.2 µM; in the experiment on COLO 205 colon, 22.1 µM; in the experiment on SK-MEL-28 melanoma, 20.7 µM; with RXF 393 renal, 17.1 µM; in the experiment with MOLT-4 leukemia it was 19.9 µM; with A549 NSCLC it was 21.1 µM. Besides, the GI50 with ACHN renal is 21.7 µM; in the experiment with RPMI-8226 leukemia it was 9.66 µM; in the experiment on SW-620 colon, 22.1 µM; with HOP-62 NSCLC it was 17.2 µM. In addition, the TGI in the experiment with HCT-15 colon is 46 µM; in the experiment with COLO 205 colon, 49.1 µM; in the experiment with SK-MEL-28 melanoma, 44.6 µM; in the experiment on RXF 393 renal it was 42.6 µM; with MOLT-4 leukemia, 52.5 µM; with A549 NSCLC, 77.5 µM. Besides, the TGI came out at 56.3 µM in the experiment on ACHN renal, 43.1 µM with RPMI-8226 leukemia, 45.8 µM with SW-620 colon and 31.8 µM in the experiment with HOP-62 NSCLC.
